Reference: paper doi:10.1101/2021.06.23.449549v1 (biorxiv, 2021)

T1: AtPQT11/CYP86A4 (Arabidopsis thaliana, UniProt Q9LMM1)
T1 sequence (Q9LMM1 1-554): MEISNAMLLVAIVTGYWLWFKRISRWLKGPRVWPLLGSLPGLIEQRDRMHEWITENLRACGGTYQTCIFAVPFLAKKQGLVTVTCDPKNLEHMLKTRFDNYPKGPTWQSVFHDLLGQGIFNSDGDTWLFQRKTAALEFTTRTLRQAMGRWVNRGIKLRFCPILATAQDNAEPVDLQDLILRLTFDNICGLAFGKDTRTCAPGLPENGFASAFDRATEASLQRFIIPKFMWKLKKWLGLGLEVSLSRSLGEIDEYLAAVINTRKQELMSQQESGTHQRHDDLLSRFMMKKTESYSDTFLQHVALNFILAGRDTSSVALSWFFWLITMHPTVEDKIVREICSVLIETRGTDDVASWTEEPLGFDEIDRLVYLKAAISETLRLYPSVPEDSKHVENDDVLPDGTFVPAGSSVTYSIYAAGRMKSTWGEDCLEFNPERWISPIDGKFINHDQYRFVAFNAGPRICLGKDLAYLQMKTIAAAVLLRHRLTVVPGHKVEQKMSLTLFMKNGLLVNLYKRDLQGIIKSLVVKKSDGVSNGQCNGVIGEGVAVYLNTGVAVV


Assays:
[1] = target: T1, AtPQT11/CYP86A4; format: biochemical; conditions: 2 mM NADPH in excess; 25 mM phosphate pH 7.0; 27 °C; N-demethylation
[2] = substrate: NC(=O)C1=CN([C@@H]2O[C@H](COP(=O)(O)OP(=O)(O)OC[C@H]3O[C@@H](n4cnc5c(N)ncnc54)[C@H](OP(=O)(O)O)[C@@H]3O)[C@@H](O)[C@H]2O)C=CC1; assay: purified protein; format: biochemical, Arabidopsis thaliana; conditions: pH 7.0; 27.0 °C; varied: cofactor

Molecule | Km [1] [µM] | Km [2]
C[n+]1ccc(-c2cc[n+](C)cc2)cc1 [paraquat, 1,1’-dimethyl-4,4’-bipyridynium dichloride] | 1.34 | 
AtPQT11/CYP86A4 (Arabidopsis thaliana) (protein) MEISNAMLLVAIVTGYWLWFKRISRWLKGPRVWPLLGSLPGLIEQRDRMHEWITENLRACGGTYQTCIFAVPFLAKKQGLVTVTCDPKNLEHMLKTRFDNYPKGPTWQSVFHDLLGQGIFNSDGDTWLFQRKTAALEFTTRTLRQAMGRWVNRGIKLRFCPILATAQDNAEPVDLQDLILRLTFDNICGLAFGKDTRTCAPGLPENGFASAFDRATEASLQRFIIPKFMWKLKKWLGLGLEVSLSRSLGEIDEYLAAVINTRKQELMSQQESGTHQRHDDLLSRFMMKKTESYSDTFLQHVALNFILAGRDTSSVALSWFFWLITMHPTVEDKIVREICSVLIETRGTDDVASWTEEPLGFDEIDRLVYLKAAISETLRLYPSVPEDSKHVENDDVLPDGTFVPAGSSVTYSIYAAGRMKSTWGEDCLEFNPERWISPIDGKFINHDQYRFVAFNAGPRICLGKDLAYLQMKTIAAAVLLRHRLTVVPGHKVEQKMSLTLFMKNGLLVNLYKRDLQGIIKSLVVKKSDGVSNGQCNGVIGEGVAVYLNTGVAVV |  | 1155 (±214.9) μM
